Test results: patent US10456358B2, “Isoxazoline compositions and use thereof in the prevention or treatment of parasite infestations in animals” (Intervet Inc., priority 2013, dated 2019)

Experiments:
[1] = Technological study: fluralaner concentration at drinking nipples of a poultry house water system; type: physicochemical
Experimental: The study was conducted in a commercial poultry house for approximately 36000 replacement chickens with 4 batteries each with 3 levels. 4 PVC water dead-end pipes, (78 m long) supplied water for each battery.
Drinking nipples (Big Dutchman types “screw nipples” and “Top”, equipped with a single-arm plastic drip cup) were fitted to the water pipes. In this facility the delivery of the concentrated composition to the drinking nipples using both a dosing pump system and a medication tank was evaluated. • a) Dosing Pump • The dosing pump and its stock solution container were installed in a water hose coming from the water supply pipe and ending in a water tank that was metered for […]. • The dosing pump was set for 5% injection rate. The stock solution container was filled with a total of 8.8 L (175×0.05 [5%]). • Once the container was filled, the calculated volume of 193 mL of the concentrated composition was poured into the container and subsequently stirred. • The dosing pump was connected to the water distribution pipe and the pipe system filled with the medicated water. • b) Medication Tank • The medication tank was filled with 175 L of tap water. • The calculated volume of 193 mL of the concentrated composition was poured into the container and subsequently stirred. • The medication tank was connected to the water distribution pipe and the pipe system filled with the medicated water.
No animals were present in the cages. Therefore the water lines were opened every 10 min to mimic a continuous (intermittent) drinking water flow. At each draining 7.3 L of medicated water was allowed to drain at the dead-end side of the pipe.
Samples of medicated water was taken from 6 drinking nipples: the first and last drinking nipple in a drinker line, and from 4 drinking nipples having an equal distance at pre-defined time points, with a maximum of 4 h and analysed for fluralaner concentration.

[2] = Tolerability in hens in the efficacy study; type: in vivo; conditions: 0.5-2 mg fluralaner/kg BW via medicated drinking water
Experimental: Groups A-D (n=6) were treated with doses of 2, 1 and 0.5 mg fluralaner/kg BW once or 1 mg fluralaner/kg BW twice (0.5 mg/kg BW on 2 occasions).
On D0 (group D additionally on D7), the hens in groups A-D received fluralaner via medicated drinking water. Group E received un-medicated drinking water ad libitum.

Q: What does the source list for `Cc1cc(C2=NOC(c3cc(Cl)cc(Cl)c3)(C(F)(F)F)C2)ccc1C(=O)NCC(=O)NCC(F)(F)F` (centres unmarked) [fluralaner, 4-[5-(3,5-Dichlorophenyl)-5-trifluoromethyl-4,5-dihydroisoxazol-3-yl]-2-methyl-N-[(2,2,2-trifluoro-ethylcarbamoyl)-methyl]-benzamide]?
A: Deviation of fluralaner concentration at the drinking nipple from nominal concentration (percent) ([1]; Dosing pump system, Nipple 1, T 30 min): −10%; Deviation of fluralaner concentration at the drinking nipple from nominal concentration (percent) ([1]; Dosing pump system, Nipple 1, T 60 min): −10%; Deviation of fluralaner concentration at the drinking nipple from nominal concentration (percent) ([1]; Dosing pump system, Nipple 1, T 120 min): −9%; Deviation of fluralaner concentration at the drinking nipple from nominal concentration (percent) ([1]; Dosing pump system, Nipple 1, T 180 min): −9%; Deviation of fluralaner concentration at the drinking nipple from nominal concentration (percent) ([1]; Dosing pump system, Nipple 1, T 240 min): −9%; Deviation of fluralaner concentration at the drinking nipple from nominal concentration (percent) ([1]; Dosing pump system, Nipple 2, T 30 min): −9%; Deviation of fluralaner concentration at the drinking nipple from nominal concentration (percent) ([1]; Dosing pump system, Nipple 2, T 60 min): −14%; Deviation of fluralaner concentration at the drinking nipple from nominal concentration (percent) ([1]; Dosing pump system, Nipple 2, T 120 min): −12%; Deviation of fluralaner concentration at the drinking nipple from nominal concentration (percent) ([1]; Dosing pump system, Nipple 2, T 180 min): −9%; Deviation of fluralaner concentration at the drinking nipple from nominal concentration (percent) ([1]; Dosing pump system, Nipple 2, T 240 min): −9%; Deviation of fluralaner concentration at the drinking nipple from nominal concentration (percent) ([1]; Dosing pump system, Nipple 3, T 30 min): −9%; Deviation of fluralaner concentration at the drinking nipple from nominal concentration (percent) ([1]; Dosing pump system, Nipple 3, T 60 min): −10%; Deviation of fluralaner concentration at the drinking nipple from nominal concentration (percent) ([1]; Dosing pump system, Nipple 3, T 120 min): −10%; Deviation of fluralaner concentration at the drinking nipple from nominal concentration (percent) ([1]; Dosing pump system, Nipple 3, T 180 min): −14%; Deviation of fluralaner concentration at the drinking nipple from nominal concentration (percent) ([1]; Dosing pump system, Nipple 3, T 240 min): −14%; Deviation of fluralaner concentration at the drinking nipple from nominal concentration (percent) ([1]; Dosing pump system, Nipple 4, T 30 min): −12%; Deviation of fluralaner concentration at the drinking nipple from nominal concentration (percent) ([1]; Dosing pump system, Nipple 4, T 60 min): −16%; Deviation of fluralaner concentration at the drinking nipple from nominal concentration (percent) ([1]; Dosing pump system, Nipple 4, T 120 min): −14%; Deviation of fluralaner concentration at the drinking nipple from nominal concentration (percent) ([1]; Dosing pump system, Nipple 4, T 180 min): −10%; Deviation of fluralaner concentration at the drinking nipple from nominal concentration (percent) ([1]; Dosing pump system, Nipple 4, T 240 min): −10%; Deviation of fluralaner concentration at the drinking nipple from nominal concentration (percent) ([1]; Dosing pump system, Nipple 5, T 30 min): −12%; Deviation of fluralaner concentration at the drinking nipple from nominal concentration (percent) ([1]; Dosing pump system, Nipple 5, T 60 min): −10%; Deviation of fluralaner concentration at the drinking nipple from nominal concentration (percent) ([1]; Dosing pump system, Nipple 5, T 120 min): −11%; Deviation of fluralaner concentration at the drinking nipple from nominal concentration (percent) ([1]; Dosing pump system, Nipple 5, T 180 min): −10%; Deviation of fluralaner concentration at the drinking nipple from nominal concentration (percent) ([1]; Dosing pump system, Nipple 5, T 240 min): −10%; Deviation of fluralaner concentration at the drinking nipple from nominal concentration (percent) ([1]; Dosing pump system, Nipple 6, T 30 min): −26%; Deviation of fluralaner concentration at the drinking nipple from nominal concentration (percent) ([1]; Dosing pump system, Nipple 6, T 60 min): −10%; Deviation of fluralaner concentration at the drinking nipple from nominal concentration (percent) ([1]; Dosing pump system, Nipple 6, T 120 min): −11%; Deviation of fluralaner concentration at the drinking nipple from nominal concentration (percent) ([1]; Dosing pump system, Nipple 6, T 180 min): −11%; Deviation of fluralaner concentration at the drinking nipple from nominal concentration (percent) ([1]; Dosing pump system, Nipple 6, T 240 min): −10%; Deviation of fluralaner concentration at the drinking nipple from nominal concentration (percent) ([1]; Medication tank system, Nipple 1, T 30 min): −5%; Deviation of fluralaner concentration at the drinking nipple from nominal concentration (percent) ([1]; Medication tank system, Nipple 1, T 60 min): −4%; Deviation of fluralaner concentration at the drinking nipple from nominal concentration (percent) ([1]; Medication tank system, Nipple 1, T 120 min): −4%; Deviation of fluralaner concentration at the drinking nipple from nominal concentration (percent) ([1]; Medication tank system, Nipple 1, T 180 min): −5%; Deviation of fluralaner concentration at the drinking nipple from nominal concentration (percent) ([1]; Medication tank system, Nipple 1, T 240 min): −10%; Deviation of fluralaner concentration at the drinking nipple from nominal concentration (percent) ([1]; Medication tank system, Nipple 2, T 30 min): −7%; Deviation of fluralaner concentration at the drinking nipple from nominal concentration (percent) ([1]; Medication tank system, Nipple 2, T 60 min): −5%; Deviation of fluralaner concentration at the drinking nipple from nominal concentration (percent) ([1]; Medication tank system, Nipple 2, T 120 min): −4%; Deviation of fluralaner concentration at the drinking nipple from nominal concentration (percent) ([1]; Medication tank system, Nipple 2, T 180 min): −5%; Deviation of fluralaner concentration at the drinking nipple from nominal concentration (percent) ([1]; Medication tank system, Nipple 2, T 240 min): −4%; Deviation of fluralaner concentration at the drinking nipple from nominal concentration (percent) ([1]; Medication tank system, Nipple 3, T 30 min): −5%; Deviation of fluralaner concentration at the drinking nipple from nominal concentration (percent) ([1]; Medication tank system, Nipple 3, T 60 min): −4%; Deviation of fluralaner concentration at the drinking nipple from nominal concentration (percent) ([1]; Medication tank system, Nipple 3, T 120 min): −4%; Deviation of fluralaner concentration at the drinking nipple from nominal concentration (percent) ([1]; Medication tank system, Nipple 3, T 180 min): −4%; Deviation of fluralaner concentration at the drinking nipple from nominal concentration (percent) ([1]; Medication tank system, Nipple 3, T 240 min): −4%; Deviation of fluralaner concentration at the drinking nipple from nominal concentration (percent) ([1]; Medication tank system, Nipple 4, T 30 min): −6%; Deviation of fluralaner concentration at the drinking nipple from nominal concentration (percent) ([1]; Medication tank system, Nipple 4, T 60 min): −5%; Deviation of fluralaner concentration at the drinking nipple from nominal concentration (percent) ([1]; Medication tank system, Nipple 4, T 120 min): −4%; Deviation of fluralaner concentration at the drinking nipple from nominal concentration (percent) ([1]; Medication tank system, Nipple 4, T 180 min): −4%; Deviation of fluralaner concentration at the drinking nipple from nominal concentration (percent) ([1]; Medication tank system, Nipple 4, T 240 min): −3%; Deviation of fluralaner concentration at the drinking nipple from nominal concentration (percent) ([1]; Medication tank system, Nipple 5, T 30 min): −8%; Deviation of fluralaner concentration at the drinking nipple from nominal concentration (percent) ([1]; Medication tank system, Nipple 5, T 60 min): −4%; Deviation of fluralaner concentration at the drinking nipple from nominal concentration (percent) ([1]; Medication tank system, Nipple 5, T 120 min): −4%; Deviation of fluralaner concentration at the drinking nipple from nominal concentration (percent) ([1]; Medication tank system, Nipple 5, T 180 min): −4%; Deviation of fluralaner concentration at the drinking nipple from nominal concentration (percent) ([1]; Medication tank system, Nipple 5, T 240 min): −6%; Deviation of fluralaner concentration at the drinking nipple from nominal concentration (percent) ([1]; Medication tank system, Nipple 6, T 30 min): −6%; Deviation of fluralaner concentration at the drinking nipple from nominal concentration (percent) ([1]; Medication tank system, Nipple 6, T 60 min): −6%; Deviation of fluralaner concentration at the drinking nipple from nominal concentration (percent) ([1]; Medication tank system, Nipple 6, T 120 min): −4%; Deviation of fluralaner concentration at the drinking nipple from nominal concentration (percent) ([1]; Medication tank system, Nipple 6, T 180 min): −5%; Deviation of fluralaner concentration at the drinking nipple from nominal concentration (percent) ([1]; Medication tank system, Nipple 6, T 240 min): −4%; fluralaner concentration in the drinking water over time and along the drinking water line ([1]; up to 4 hours, medication tank and dosing pump): remains constant over time and along the drinking water line; tolerability [2]: well tolerated
